Measurements: patent US20240368104A1, “Novel Dialkoxynaphtho[2,3-C]Furan-1(3H)-One Derivatives and Pharmaceutical Composition For Preventing or Treating Respiratory Disease or SARS-COV-2 Infection Disease, Comprising Same” (priority 2021, published 2024)
Counter-ions that a name gives are not always drawn. Like-named read-outs stand apart in the source and are kept apart here.

Tests used:
SARS-COV-2 = test: microbe, parasite or virus in culture; type: cell-based; design: SI (Selectivity Index, CC50/IC50): unit not given here; conditions: for SI (Selectivity Index, CC50/IC50): SARS-COV-2, values >50 assumed to be 50; for IC50: read-out: SARS-COV-2 inhibition (IC50)
in vitro = conditions: African green monkey
[1] = Severe acute respiratory syndrome coronavirus 2, Vero cells, 24 hours infection
[2] = Severe acute respiratory syndrome coronavirus 2, Vero, 24 h

With `COc1cc2cc3c(c(-c4cnc(N(C)c5ccc(C)c(C)c5)nc4)c2cc1OC)C(=O)OC3` [Example 109, 9-(2-((3,4-dimethylphenyl)(methyl)amino)pyrimidin-5-yl)-6,7-dimethoxynaphtho[2,3-c]furan-1(3H)-one] the “SI (Selectivity Index, CC50/IC50)” value (SARS-COV-2) was 18.73, the IC50 (SARS-COV-2; [1]) was 2.67 µM and the CC50 (in vitro) was greater than 50 µM.
For `COc1cc2cc3c(c(-c4cnc(N5CCCCC5CO)nc4)c2cc1OC)C(=O)OC3` (stereo not drawn) [Example 104, 9-(2-(2-(hydroxymethyl)piperidin-1-yl)pyrimidin-5-yl)-6,7-dimethoxynaphtho[2,3-c]furan-1(3H)-one hydrochloride], the “SI (Selectivity Index, CC50/IC50)” value (SARS-COV-2) was 1.0, the IC50 (SARS-COV-2; [2]) was greater than 50 µM and the CC50 (in vitro) was greater than 50 µM.
In the case of `COc1cc2cc3c(c(-c4ccc(N(C)CC(C)C)nc4)c2cc1OC)C(=O)OC3` [Example 181, 9-(6-(isobutyl(methyl)amino)pyridin-3-yl)-6,7-dimethoxynaphtho[2,3-c]furan-1(3H)-one], the “SI (Selectivity Index, CC50/IC50)” value (SARS-COV-2) is reported as 53.67, the IC50 (SARS-COV-2; [1]) is reported as 0.93 µM and the CC50 (in vitro) is reported as greater than 50 µM.
For `CCN(c1ccc(-c2c3c(cc4cc(OC)c(OC)cc24)COC3=O)cn1)C(C)C` [Example 182, 9-(6-(ethyl(isopropyl)amino)pyridin-3-yl)-6,7-dimethoxynaphtho[2,3-c]furan-1(3H)-one], the “SI (Selectivity Index, CC50/IC50)” value (SARS-COV-2) was 75.67, the IC50 (SARS-COV-2; [1]) was 0.66 µM and the CC50 (in vitro) was greater than 50 µM.
In the case of `COc1cc2cc3c(c(-c4cnccn4)c2cc1OC)C(=O)OC3` [Example 32, 6,7-dimethoxy-9-(pyrazin-2-yl)naphtho[2,3-c]furan-1(3H)-one], the “SI (Selectivity Index, CC50/IC50)” value (SARS-COV-2) is reported as 1.00, the IC50 (SARS-COV-2; [1]) is reported as greater than 50 µM and the CC50 (in vitro) is reported as greater than 50 µM.
With `COc1cc2cc3c(c(-c4cnc(N(C)CCCN5CCOCC5)nc4)c2cc1OC)C(=O)OC3` [Example 112, 6,7-dimethoxy-9-(2-(methyl(3-morpholinopropyl)amino)pyrimidin-5-yl)naphtho[2,3-c]furan-1(3H)-one dihydrochloride] the “SI (Selectivity Index, CC50/IC50)” value (SARS-COV-2) was 6.70, the IC50 (SARS-COV-2; [2]) was 7.46 µM and the CC50 (in vitro) was greater than 50 µM.
In the case of `COc1cc2cc3c(c(-c4ccc5nccc(Cl)c5c4)c2cc1OC)C(=O)OC3` [Example 138, 9-(4-chloroquinolin-6-yl)-6,7-dimethoxynaphtho[2,3-c]furan-1(3H)-one], the “SI (Selectivity Index, CC50/IC50)” value (SARS-COV-2) is reported as 1.33, the IC50 (SARS-COV-2; [1]) is reported as 37.7 µM and the CC50 (in vitro) is reported as greater than 50 µM.
With `CCCCCCCCCCN(CCCCCCCCCC)c1ncc(-c2c3c(cc4cc(OC)c(OC)cc24)COC3=O)cn1.Cl` [Example 87, 9-(2-(didecylamino)pyrimidin-5-yl)-6,7-dimethoxynaphtho[2,3-c]furan-1(3H)-one hydrochloride] the “SI (Selectivity Index, CC50/IC50)” value (SARS-COV-2) was 1.00, the IC50 (SARS-COV-2; [2]) was greater than 50 µM and the CC50 (in vitro) was greater than 50 µM.
In the case of `COc1cc2cc3c(c(-c4ccc(N(C)c5nn(C)cc5C#N)nc4)c2cc1OC)C(=O)OC3.Cl` [Example 241, 3-((5-(6,7-dimethoxy-3-oxo-1,3-dihydronaphtho[2,3-c]furan-4-yl)pyridin-2-yl)(methyl)amino)-1-methyl-1H-pyrazol-4-carbonitrile], the “SI (Selectivity Index, CC50/IC50)” value (SARS-COV-2) is reported as 1.00, the IC50 (SARS-COV-2; [2]) is reported as greater than 50 µM and the CC50 (in vitro) is reported as greater than 50 µM.
In the case of `COc1cc2cc3c(c(-c4ccc(N5CCCCC5)nc4)c2cc1OC)C(=O)OC3` [Example 123, 6,7-dimethoxy-9-(6-(piperidin-1-yl)pyridin-3-yl)naphtho[2,3-c]furan-1(3H)-one], the “SI (Selectivity Index, CC50/IC50)” value (SARS-COV-2) is reported as 145.26, the IC50 (SARS-COV-2; [1]) is reported as 0.34 µM and the CC50 (in vitro) is reported as greater than 50 µM.
For `COc1cc2cc3c(c(-c4cccc(N5CCCCC5)c4)c2cc1OC)C(=O)OC3` [Example 243, 6,7-dimethoxy-9-(3-(piperidin-1-yl)phenyl)naphtho[2,3-c]furan-1(3H)-one], the “SI (Selectivity Index, CC50/IC50)” value (SARS-COV-2) was 3.26, the IC50 (SARS-COV-2; [1]) was 15.3 µM and the CC50 (in vitro) was greater than 50 µM.
For `COc1cc2cc3c(c(-c4ccc(N(C)c5ncn(C)n5)nc4)c2cc1OC)C(=O)OC3` [Example 206, 6,7-dimethoxy-9-(6-(methyl(1-methyl-1H-1,2,4-triazol-3-yl)amino)pyridin-3-yl)naphtho[2,3-c]furan-1(3H)-one], the “SI (Selectivity Index, CC50/IC50)” value (SARS-COV-2) was 2.79, the IC50 (SARS-COV-2; [1]) was 17.9 µM and the CC50 (in vitro) was greater than 50 µM.
With `COc1cc2cc3c(c(-c4cnc(N(C)c5cccc(C(F)(F)F)c5)nc4)c2cc1OC)C(=O)OC3` [Example 216, 6,7-dimethoxy-9-(2-(methyl(3-(trifluoromethyl)phenyl)amino)pyrimidin-5-yl)naphtho[2,3-c]furan-1(3H)-one] the “SI (Selectivity Index, CC50/IC50)” value (SARS-COV-2) was 52.13, the IC50 (SARS-COV-2; [1]) was 0.96 µM and the CC50 (in vitro) was greater than 50 µM.
With `CCN(Cc1ccncc1)c1ccc(-c2c3c(cc4cc(OC)c(OC)cc24)COC3=O)cn1` [Example 226, 9-(6-(ethyl(pyridin-4-ylmethyl)amino)pyridin-3-yl)-6,7-dimethoxynaphtho[2,3-c]furan-1(3H)-one] the “SI (Selectivity Index, CC50/IC50)” value (SARS-COV-2) was 7.47, the IC50 (SARS-COV-2; [1]) was 6.69 µM and the CC50 (in vitro) was greater than 50 µM.
In the case of `COc1cc2cc3c(c(-c4cnc(N5CCCC(C(=O)O)C5)nc4)c2cc1OC)C(=O)OC3` (stereo not drawn) [Example 60, 1-(5-(6,7-dimethoxy-3-oxo-1,3-dihydronaphtho[2,3-c]furan-4-yl)pyrimidin-2-yl) piperidin-3-carboxylic acid], the “SI (Selectivity Index, CC50/IC50)” value (SARS-COV-2) is reported as 1.00, the IC50 (SARS-COV-2; [1]) is reported as greater than 50 µM and the CC50 (in vitro) is reported as greater than 50 µM.
In the case of `COc1cc2cc3c(c(-c4ccc(N5CCC(C)CC5)nc4)c2cc1OC)C(=O)OC3` [Example 159, 6,7-dimethoxy-9-(6-(4-methylpiperidin-1-yl)pyridin-3-yl)naphtho[2,3-c]furan-1(3H)-one], the “SI (Selectivity Index, CC50/IC50)” value (SARS-COV-2) is reported as 32.86, the IC50 (SARS-COV-2; [1]) is reported as 1.52 µM and the CC50 (in vitro) is reported as greater than 50 µM.
With `COc1cc2c(OC)c3c(c(-c4ccc(N5CCOCC5)nc4)c2cc1OC)COC3=O` [Example 267, 6,7,9-trimethoxy-4-(6-morpholinopyridin-3-yl)naphtho[2,3-c]furan-1(3H)-one] the “SI (Selectivity Index, CC50/IC50)” value (SARS-COV-2) was 1.00, the IC50 (SARS-COV-2; [1]) was greater than 50 µM and the CC50 (in vitro) was greater than 50 µM.
For `COc1cc2cc3c(c(-c4ccc(N(C)Cc5ccccc5C(F)(F)F)nc4)c2cc1OC)C(=O)OC3` [Example 208, 6,7-dimethoxy-9-(6-(methyl(2-(trifluoromethyl)benzyl)amino)pyridin-3-yl)naphtho[2,3-c]furan-1(3H)-one], the “SI (Selectivity Index, CC50/IC50)” value (SARS-COV-2) was 18.96, the IC50 (SARS-COV-2; [1]) was 2.64 µM and the CC50 (in vitro) was greater than 50 µM.
In the case of `COc1cc2cc3c(c(-c4ccc(N(C)C)cc4)c2cc1OC)C(=O)OC3.Cl` [Example 247, 9-(4-(dimethylamino)phenyl)-6,7-dimethoxynaphtho[2,3-c]furan-1(3H)-one], the “SI (Selectivity Index, CC50/IC50)” value (SARS-COV-2) is reported as 344.5, the IC50 (SARS-COV-2; [2]) is reported as 0.15 µM and the CC50 (in vitro) is reported as greater than 50 µM.
With `COc1cc2cc3c(c(-c4ccc(N(C)CC5CCCO5)nc4)c2cc1OC)C(=O)OC3` (stereo not drawn) [Example 192, 6,7-dimethoxy-9-(6-(methyl((tetrahydrofuran-2-yl)methyl)amino)pyridin-3-yl)naphtho[2,3-c]furan-1(3H)-one] the “SI (Selectivity Index, CC50/IC50)” value (SARS-COV-2) was 10.08, the IC50 (SARS-COV-2; [1]) was 4.96 µM and the CC50 (in vitro) was greater than 50 µM.
In the case of `COc1cc2cc3c(c(-c4cc5c(cc4OC(=O)C(N)C(C)C)OCO5)c2cc1OC)C(=O)OC3.Cl` (stereo in doubt) [Example 269, 6-(6,7-dimethoxy-3-oxo-1,3-dihydronaphtho[2,3-c]furan-4-yl)benzo[d][1,3]dioxol-5-yl L-valinate hydrochloride], the “SI (Selectivity Index, CC50/IC50)” value (SARS-COV-2) is reported as 94.66, the IC50 (SARS-COV-2; [2]) is reported as 0.53 µM and the CC50 (in vitro) is reported as greater than 50 µM.
With `CCN(CC1CCCO1)c1ccc(-c2c3c(cc4cc(OC)c(OC)cc24)COC3=O)cn1` (stereo not drawn) [Example 193, 9-(6-(ethyl((tetrahydrofuran-2-yl)methyl)amino)pyridin-3-yl)-6,7-dimethoxynaphtho[2,3-c]furan-1(3H)-one] the “SI (Selectivity Index, CC50/IC50)” value (SARS-COV-2) was 6.46, the IC50 (SARS-COV-2; [1]) was 7.74 µM and the CC50 (in vitro) was greater than 50 µM.
For `COc1cc2cc3c(c(-c4cnc(N5CCC(N(C)C)CC5)nc4)c2cc1OC)C(=O)OC3` [Example 205, 9-(2-(4-(dimethylamino)piperidin-1-yl)pyrimidin-5-yl)-6,7-dimethoxynaphtho[2,3-c]furan-1(3H)-one], the “SI (Selectivity Index, CC50/IC50)” value (SARS-COV-2) was 7.75, the IC50 (SARS-COV-2; [1]) was 6.46 µM and the CC50 (in vitro) was greater than 50 µM.
In the case of `CCOP(=O)(OCC)Oc1cc2c(cc1-c1c3c(cc4cc(OC)c(OC)cc14)COC3=O)OCO2` [Example 277, 6-(6,7-dimethoxy-3-oxo-1,3-dihydronaphtho[2,3-c]furan-4-yl)benzo[d][1,3]dioxol-5-yl diethyl phosphate], the “SI (Selectivity Index, CC50/IC50)” value (SARS-COV-2) is reported as 1.00, the IC50 (SARS-COV-2; [2]) is reported as greater than 50 µM and the CC50 (in vitro) is reported as greater than 50 µM.
With `COCCN(C)c1ccc(-c2c3c(cc4cc(OC)c(OC)cc24)COC3=O)cn1.Cl` [Example 168, 6,7-dimethoxy-9-(6-((2-methoxyethyl)(methyl)amino)pyridin-3-yl)naphtho[2,3-c]furan-1(3H)-one hydrochloride] the “SI (Selectivity Index, CC50/IC50)” value (SARS-COV-2) was 42.46, the IC50 (SARS-COV-2; [2]) was 1.18 µM and the CC50 (in vitro) was greater than 50 µM.
In the case of `CCC(C)CNc1ncc(-c2c3c(cc4cc(OC)c(OC)cc24)COC3=O)cn1` (stereo not drawn) [Example 64, 6,7-dimethoxy-9-(2-((2-methylbutyl)amino)pyrimidin-5-yl)naphtho[2,3-c]furan-1(3H)-one], the “SI (Selectivity Index, CC50/IC50)” value (SARS-COV-2) is reported as 1.00, the IC50 (SARS-COV-2; [1]) is reported as greater than 50 µM and the CC50 (in vitro) is reported as greater than 50 µM.
In the case of `COc1cc2cc3c(c(-c4cc5c(cc4OC(=O)c4cccnc4)OCO5)c2cc1OC)C(=O)OC3` [Example 272, 6-(6,7-dimethoxy-3-oxo-1,3-dihydronaphtho[2,3-c]furan-4-yl)benzo[d][1,3]dioxol-5-yl nicotinate], the “SI (Selectivity Index, CC50/IC50)” value (SARS-COV-2) is reported as 27.23, the IC50 (SARS-COV-2; [1]) is reported as 1.84 µM and the CC50 (in vitro) is reported as greater than 50 µM.
With `COc1cc2cc3c(c(-c4cc(C)nc5c(C(F)(F)F)cccc45)c2cc1OC)C(=O)OC3` [Example 136, 6,7-dimethoxy-9-(2-methyl-8-(trifluoromethyl)quinolin-4-yl)naphtho[2,3-c]furan-1(3H)-one] the “SI (Selectivity Index, CC50/IC50)” value (SARS-COV-2) was 1.0, the IC50 (SARS-COV-2; [1]) was greater than 50 µM and the CC50 (in vitro) was greater than 50 µM.
In the case of `COc1cc2cc3c(c(-c4cnc(N(C)c5ccc(C)c(C)c5)nc4)c2cc1OC)C(=O)OC3.Cl` [Example 213, 9-(2-((3,4-dimethylphenyl)(methyl)amino)pyrimidin-5-yl)-6,7-dimethoxynaphtho[2,3-c]furan-1(3H)-one], the “SI (Selectivity Index, CC50/IC50)” value (SARS-COV-2) is reported as 2.81 and the IC50 (SARS-COV-2) is reported as 4.41 µM.
For `COc1cc2cc3c(c(-c4cnc(N5CCCC(O)C5)nc4)c2cc1OC)C(=O)OC3.Cl` (stereo not drawn) [Example 80], the “SI (Selectivity Index, CC50/IC50)” value (SARS-COV-2) was 4.21.
